# Paper PMC6409085, “Three odorant-binding proteins are involved in the behavioral response of Sogatella furcifera to rice plant volatiles” (PeerJ, 2019)
# Values joined by “and” are separate entries in the source; they are usually repeats but may differ in a detail not shown here. Equal entries are not always repeated.
# Assays:
# SfurOBP1 = SfurOBP1 (Sogatella furcifera, UniProt V5T8N5); assay: biochemical; format: binding; conditions: for Fluorescence competitive binding assay, fluorescence intensity: OBP1, three replicate columns
# How it was run: (§1)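 Protein 2.0 µM + 1-NPN 2.0 µM, 50 mM Tris-HCl pH 7.4; competitor odorants 2, 4 … 20 µM final; read 2 min post-addition, ex 337/em 390–490 nm; n=3. K1-NPN from 1-NPN titration/Scatchard; Ki from IC50 corrected for free 1-NPN.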
# SfurOBP11 = SfurOBP11 (Sogatella furcifera, UniProt V5T6E3); assay: biochemical; format: binding
# How it was run: as §1
# SfurOBP2 = SfurOBP2 (Sogatella furcifera, UniProt V5T759); assay: biochemical; format: binding
# How it was run: as §1
# SfurOBP3 = SfurOBP3 (Sogatella furcifera, UniProt V5T818); assay: biochemical; format: binding; conditions: for Fluorescence competitive binding assay, fluorescence intensity: OBP3, three replicate columns
# How it was run: as §1
# S. furcifera adults = assay: Y-tube olfactometer behavioral trials; format: in vivo, Sogatella furcifera; conditions: odorant 50 µL/L vs hexane
# How it was run: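 Single S. furcifera adults (2 days post-emergence, starved 0.5 h) chose between odorant (100 µL of 50 µL/L on filter paper) and hexane control in a glass Y-tube, charcoal-filtered humidified air 300 mL/min per arm, 25 ± 1 °C, 50% RH. Choice scored if insect passed half an arm and stayed >1 min within 10 min; 45 insects per compound, chi-squared test.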
# Sequence of SfurOBP2 (V5T759 entry or part of it): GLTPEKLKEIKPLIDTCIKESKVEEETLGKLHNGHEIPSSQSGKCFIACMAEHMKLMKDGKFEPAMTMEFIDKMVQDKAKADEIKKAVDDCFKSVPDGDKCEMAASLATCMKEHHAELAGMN
# Sequence of SfurOBP11 (V5T6E3 entry or part of it): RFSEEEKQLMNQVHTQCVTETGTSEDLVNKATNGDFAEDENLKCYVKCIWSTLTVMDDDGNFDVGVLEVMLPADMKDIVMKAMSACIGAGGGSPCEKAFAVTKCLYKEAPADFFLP
# Sequence of SfurOBP3 (V5T818 entry or part of it): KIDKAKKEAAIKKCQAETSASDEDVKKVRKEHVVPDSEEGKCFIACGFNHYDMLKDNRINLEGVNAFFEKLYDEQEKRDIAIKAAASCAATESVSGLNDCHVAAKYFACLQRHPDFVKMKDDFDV
# Sequence of SfurOBP1 (V5T8N5 entry or part of it): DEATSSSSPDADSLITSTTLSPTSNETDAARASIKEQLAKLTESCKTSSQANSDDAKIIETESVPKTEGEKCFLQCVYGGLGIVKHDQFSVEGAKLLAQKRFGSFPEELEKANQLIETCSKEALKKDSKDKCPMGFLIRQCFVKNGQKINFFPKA
smiles,measurement,setting,value
CCCCCCCC=O [octanal],"Fluorescence competitive binding assay, fluorescence intensity",SfurOBP1; ligand concentration 2 (μM),7113 and 7279 and 7196
same,"Fluorescence competitive binding assay, fluorescence intensity",SfurOBP1; ligand concentration 4 (μM),8035 and 6567 and 6323
same,"Fluorescence competitive binding assay, fluorescence intensity",SfurOBP1; ligand concentration 6 (μM),7198 and 8786 and 7995
same,"Fluorescence competitive binding assay, fluorescence intensity",SfurOBP1; ligand concentration 8 (μM),8545 and 7731 and 8071
same,"Fluorescence competitive binding assay, fluorescence intensity",SfurOBP1; ligand concentration 10 (μM),6799 and 7181 and 8487
same,"Fluorescence competitive binding assay, fluorescence intensity",SfurOBP1; ligand concentration 12 (μM),7177 and 8788 and 7408
same,"Fluorescence competitive binding assay, fluorescence intensity",SfurOBP1; ligand concentration 14 (μM),8520 and 7543 and 7998
same,"Fluorescence competitive binding assay, fluorescence intensity",SfurOBP1; ligand concentration 16 (μM),7196 and 9418 and 8283
same,"Fluorescence competitive binding assay, fluorescence intensity",SfurOBP1; ligand concentration 18 (μM),10247 and 9192 and 8904
same,"Fluorescence competitive binding assay, fluorescence intensity",SfurOBP1; ligand concentration 20 (μM),10042 and 9521 and 8702
same,IC50,"SfurOBP1; SfurOBP1, protein and 1-NPN both 2.0 µM, competitor 2-20 µM, read-out: IC50",> 20 µM
same,IC50,"SfurOBP11; SfurOBP11, protein and 1-NPN both 2.0 µM, competitor 2-20 µM, read-out: IC50",> 20 µM
same,"Fluorescence intensity, fluorescence competitive binding assay, OBP11","SfurOBP11; ligand concentration 2, replicate 1",24279
same,"Fluorescence intensity, fluorescence competitive binding assay, OBP11","SfurOBP11; ligand concentration 2, replicate 2",24939
same,"Fluorescence intensity, fluorescence competitive binding assay, OBP11","SfurOBP11; ligand concentration 2, replicate 3",29122
same,"Fluorescence intensity, fluorescence competitive binding assay, OBP11","SfurOBP11; ligand concentration 4, replicate 1",25640
same,"Fluorescence intensity, fluorescence competitive binding assay, OBP11","SfurOBP11; ligand concentration 4, replicate 2",28958
same,"Fluorescence intensity, fluorescence competitive binding assay, OBP11","SfurOBP11; ligand concentration 4, replicate 3",26788
same,"Fluorescence intensity, fluorescence competitive binding assay, OBP11","SfurOBP11; ligand concentration 6, replicate 1",25301
same,"Fluorescence intensity, fluorescence competitive binding assay, OBP11","SfurOBP11; ligand concentration 6, replicate 2",29174
same,"Fluorescence intensity, fluorescence competitive binding assay, OBP11","SfurOBP11; ligand concentration 6, replicate 3",26969
same,"Fluorescence intensity, fluorescence competitive binding assay, OBP11","SfurOBP11; ligand concentration 8, replicate 1",29061
same,"Fluorescence intensity, fluorescence competitive binding assay, OBP11","SfurOBP11; ligand concentration 8, replicate 2",28222
same,"Fluorescence intensity, fluorescence competitive binding assay, OBP11","SfurOBP11; ligand concentration 8, replicate 3",29900
same,"Fluorescence intensity, fluorescence competitive binding assay, OBP11","SfurOBP11; ligand concentration 10, replicate 1",27603
same,"Fluorescence intensity, fluorescence competitive binding assay, OBP11","SfurOBP11; ligand concentration 10, replicate 2",27689
same,"Fluorescence intensity, fluorescence competitive binding assay, OBP11","SfurOBP11; ligand concentration 10, replicate 3",19569
same,"Fluorescence intensity, fluorescence competitive binding assay, OBP11","SfurOBP11; ligand concentration 12, replicate 1",25318
same,"Fluorescence intensity, fluorescence competitive binding assay, OBP11","SfurOBP11; ligand concentration 12, replicate 2",27390
same,"Fluorescence intensity, fluorescence competitive binding assay, OBP11","SfurOBP11; ligand concentration 12, replicate 3",28182
same,"Fluorescence intensity, fluorescence competitive binding assay, OBP11","SfurOBP11; ligand concentration 14, replicate 1",26354
same,"Fluorescence intensity, fluorescence competitive binding assay, OBP11","SfurOBP11; ligand concentration 14, replicate 2",26978
same,"Fluorescence intensity, fluorescence competitive binding assay, OBP11","SfurOBP11; ligand concentration 14, replicate 3",26309
same,"Fluorescence intensity, fluorescence competitive binding assay, OBP11","SfurOBP11; ligand concentration 16, replicate 1",23481
same,"Fluorescence intensity, fluorescence competitive binding assay, OBP11","SfurOBP11; ligand concentration 16, replicate 2",24311
same,"Fluorescence intensity, fluorescence competitive binding assay, OBP11","SfurOBP11; ligand concentration 16, replicate 3",22273
same,"Fluorescence intensity, fluorescence competitive binding assay, OBP11","SfurOBP11; ligand concentration 18, replicate 1",28836
same,"Fluorescence intensity, fluorescence competitive binding assay, OBP11","SfurOBP11; ligand concentration 18, replicate 2",32227
same,"Fluorescence intensity, fluorescence competitive binding assay, OBP11","SfurOBP11; ligand concentration 18, replicate 3",28560
same,"Fluorescence intensity, fluorescence competitive binding assay, OBP11","SfurOBP11; ligand concentration 20, replicate 1",27143
same,"Fluorescence intensity, fluorescence competitive binding assay, OBP11","SfurOBP11; ligand concentration 20, replicate 2",27661
same,"Fluorescence intensity, fluorescence competitive binding assay, OBP11","SfurOBP11; ligand concentration 20, replicate 3",26182
same,IC50,"SfurOBP2; SfurOBP2, protein and 1-NPN both 2.0 µM, competitor 2-20 µM, read-out: IC50",> 20 µM
same,"Fluorescence competitive binding assay, OBP2 (raw fluorescence reading)","SfurOBP2; ligand concentration 2 (unit not given), replicate column 1 of 3",19179
same,"Fluorescence competitive binding assay, OBP2 (raw fluorescence reading)","SfurOBP2; ligand concentration 2 (unit not given), replicate column 2 of 3",16653
same,"Fluorescence competitive binding assay, OBP2 (raw fluorescence reading)","SfurOBP2; ligand concentration 2 (unit not given), replicate column 3 of 3",19027
same,"Fluorescence competitive binding assay, OBP2 (raw fluorescence reading)","SfurOBP2; ligand concentration 4 (unit not given), replicate column 1 of 3",18170
same,"Fluorescence competitive binding assay, OBP2 (raw fluorescence reading)","SfurOBP2; ligand concentration 4 (unit not given), replicate column 2 of 3",19771
same,"Fluorescence competitive binding assay, OBP2 (raw fluorescence reading)","SfurOBP2; ligand concentration 4 (unit not given), replicate column 3 of 3",20766
same,"Fluorescence competitive binding assay, OBP2 (raw fluorescence reading)","SfurOBP2; ligand concentration 6 (unit not given), replicate column 1 of 3",19862
same,"Fluorescence competitive binding assay, OBP2 (raw fluorescence reading)","SfurOBP2; ligand concentration 6 (unit not given), replicate column 2 of 3",19512
same,"Fluorescence competitive binding assay, OBP2 (raw fluorescence reading)","SfurOBP2; ligand concentration 6 (unit not given), replicate column 3 of 3",20651
same,"Fluorescence competitive binding assay, OBP2 (raw fluorescence reading)","SfurOBP2; ligand concentration 8 (unit not given), replicate column 1 of 3",15792
same,"Fluorescence competitive binding assay, OBP2 (raw fluorescence reading)","SfurOBP2; ligand concentration 8 (unit not given), replicate column 2 of 3",18755
same,"Fluorescence competitive binding assay, OBP2 (raw fluorescence reading)","SfurOBP2; ligand concentration 8 (unit not given), replicate column 3 of 3",20463
same,"Fluorescence competitive binding assay, OBP2 (raw fluorescence reading)","SfurOBP2; ligand concentration 10 (unit not given), replicate column 1 of 3",17421
same,"Fluorescence competitive binding assay, OBP2 (raw fluorescence reading)","SfurOBP2; ligand concentration 10 (unit not given), replicate column 2 of 3",18400
same,"Fluorescence competitive binding assay, OBP2 (raw fluorescence reading)","SfurOBP2; ligand concentration 10 (unit not given), replicate column 3 of 3",18628
same,"Fluorescence competitive binding assay, OBP2 (raw fluorescence reading)","SfurOBP2; ligand concentration 12 (unit not given), replicate column 1 of 3",16986
same,"Fluorescence competitive binding assay, OBP2 (raw fluorescence reading)","SfurOBP2; ligand concentration 12 (unit not given), replicate column 2 of 3",26722
same,"Fluorescence competitive binding assay, OBP2 (raw fluorescence reading)","SfurOBP2; ligand concentration 12 (unit not given), replicate column 3 of 3",18513
same,"Fluorescence competitive binding assay, OBP2 (raw fluorescence reading)","SfurOBP2; ligand concentration 14 (unit not given), replicate column 1 of 3",17500
same,"Fluorescence competitive binding assay, OBP2 (raw fluorescence reading)","SfurOBP2; ligand concentration 14 (unit not given), replicate column 2 of 3",18527
same,"Fluorescence competitive binding assay, OBP2 (raw fluorescence reading)","SfurOBP2; ligand concentration 14 (unit not given), replicate column 3 of 3",15051
same,"Fluorescence competitive binding assay, OBP2 (raw fluorescence reading)","SfurOBP2; ligand concentration 16 (unit not given), replicate column 1 of 3",15983
same,"Fluorescence competitive binding assay, OBP2 (raw fluorescence reading)","SfurOBP2; ligand concentration 16 (unit not given), replicate column 2 of 3",17600
same,"Fluorescence competitive binding assay, OBP2 (raw fluorescence reading)","SfurOBP2; ligand concentration 16 (unit not given), replicate column 3 of 3",16529
same,"Fluorescence competitive binding assay, OBP2 (raw fluorescence reading)","SfurOBP2; ligand concentration 18 (unit not given), replicate column 1 of 3",18709
same,"Fluorescence competitive binding assay, OBP2 (raw fluorescence reading)","SfurOBP2; ligand concentration 18 (unit not given), replicate column 2 of 3",20674
same,"Fluorescence competitive binding assay, OBP2 (raw fluorescence reading)","SfurOBP2; ligand concentration 18 (unit not given), replicate column 3 of 3",18464
same,"Fluorescence competitive binding assay, OBP2 (raw fluorescence reading)","SfurOBP2; ligand concentration 20 (unit not given), replicate column 1 of 3",19401
same,"Fluorescence competitive binding assay, OBP2 (raw fluorescence reading)","SfurOBP2; ligand concentration 20 (unit not given), replicate column 2 of 3",17294
same,"Fluorescence competitive binding assay, OBP2 (raw fluorescence reading)","SfurOBP2; ligand concentration 20 (unit not given), replicate column 3 of 3",16214
same,"Fluorescence competitive binding assay, fluorescence intensity",SfurOBP3; ligand concentration 2,68575 and 67242 and 67984
same,"Fluorescence competitive binding assay, fluorescence intensity",SfurOBP3; ligand concentration 4,64299 and 63882 and 65677
same,"Fluorescence competitive binding assay, fluorescence intensity",SfurOBP3; ligand concentration 6,63214 and 64264 and 71883
same,"Fluorescence competitive binding assay, fluorescence intensity",SfurOBP3; ligand concentration 8,56987 and 54777 and 62435
same,"Fluorescence competitive binding assay, fluorescence intensity",SfurOBP3; ligand concentration 10,56513 and 56201 and 65155
same,"Fluorescence competitive binding assay, fluorescence intensity",SfurOBP3; ligand concentration 12,55112 and 58995 and 53063
same,"Fluorescence competitive binding assay, fluorescence intensity",SfurOBP3; ligand concentration 14,51702 and 52973 and 56636
same,"Fluorescence competitive binding assay, fluorescence intensity",SfurOBP3; ligand concentration 16,47206 and 51931 and 50397
same,"Fluorescence competitive binding assay, fluorescence intensity",SfurOBP3; ligand concentration 18,54350 and 59148 and 62323
same,"Fluorescence competitive binding assay, fluorescence intensity",SfurOBP3; ligand concentration 20,48786 and 51913 and 45060
same,IC50,"SfurOBP3; SfurOBP3, protein and 1-NPN both 2.0 µM, competitor 2-20 µM, read-out: IC50",> 20 µM
same,behavioral response of S. furcifera (in words),S. furcifera adults,significantly repelled
same,number of insects choosing hexane arm,S. furcifera adults; adults,15
same,number of insects choosing volatilies arm,S. furcifera adults; adults,8
same,number of insects failed (no choice),S. furcifera adults; adults,17
